Measured values reported in patent US20110305637A1, “RADIOLABELLED PDE10 LIGANDS” (Janssen Pharmaceutica N.V., priority 2009, published 2011).
Values joined by “and” are separate entries in the source; they are usually repeats but may differ in a detail not shown here. Equal entries are not always repeated.

Experiment: Biodistribution study in male Wistar rats
Type: in vivo, rat
Conditions: for % ID/g × kg in Blood / % ID/g × kg in Cerebellum / % ID/g × kg in Cerebrum + Cerebellum / % ID/g × kg in Cerebrum total / % ID/g × kg in Cortex / % ID/g × kg in Heart / % ID/g × kg in Hippocampus / % ID/g × kg in Kidneys / % ID/g × kg in Liver / % ID/g × kg in Lungs / % ID/g × kg in Rest of cerebrum / % ID/g × kg in Spleen + Pancreas / % ID/g × kg in Striatum: normalized for body weight
Experimental: (§1) The biodistribution study of [^18F]B-1 was carried out in male Wistar rats (body weight 250-350 g) at 2 min, 30 min and 60 min post injection (p.i.) (n=3/time point). Rats were injected with about 1.1 MBq of the tracer via tail vein under anesthesia (2.5% Isoflurane in O2 at 1 L/min flow rate) and sacrificed by decapitation at above specified time points. Blood and major organs were collected in tared tubes and weighed. The radioactivity in blood, organs and other body parts was measured using an automated gamma counter The distribution of radioactivity in different parts of the body at different time points p.i. of the tracer was calculated and expressed as percentage of injected dose (% ID), and as percentage of injected dose per gram tissue (% ID/g) for the selected organs. % ID is calculated as cpm in organ/total cpm recovered. For calculation of total radioactivity in blood, blood mass was assumed to be 7% of the body mass.
as §1, with “[^18F]B-2” for “[^18F]B-1”, “270-340” for “250-350”

[1] = 60 min p.i., % ID/g values normalized for the body weight

## [18F]CCCn1cc(-c2ccncc2)c(-c2ccc(OCc3ccc4ccccc4n3)cc2)n1 [[^18F]B-1]
30 min p.i.
  % ID/g × kg in Blood: 0.03 ± 0.00 % ID/g × kg
  % ID/g × kg in Cerebellum: 0.023 ± 0.00 % ID/g × kg
  % ID/g × kg in Cerebrum + Cerebellum: 0.03 ± 0.00 % ID/g × kg
  % ID/g × kg in Cerebrum total: 0.032 ± 0.00 % ID/g × kg
  % ID/g × kg in Cortex: 0.027 ± 0.01 % ID/g × kg
  % ID/g × kg in Heart: 0.07 ± 0.00 % ID/g × kg
  % ID/g × kg in Hippocampus: 0.021 ± 0.00 % ID/g × kg
  % ID/g × kg in Kidneys: 0.16 ± 0.01 % ID/g × kg
  % ID/g × kg in Liver: 1.03 ± 0.08 % ID/g × kg
  % ID/g × kg in Lungs: 0.35 ± 0.03 % ID/g × kg
  % ID/g × kg in Rest of cerebrum: 0.030 ± 0.00 % ID/g × kg
  % ID/g × kg in Spleen + Pancreas: 0.07 ± 0.00 % ID/g × kg
  % ID/g × kg in Striatum: 0.106 ± 0.00 % ID/g × kg
60 min p.i.
  % ID in Blood: 1.9 % ID and 1.94 ± 0.1 % ID
  % ID in Carcass: 27.96 ± 0.7 % ID
  % ID in Cerebellum: 0.012 ± 0.00 % ID
  % ID in Cerebrum total: 0.101 ± 0.01 % ID
  % ID in Cortex: 0.012 ± 0.00 % ID
  % ID in Heart: 0.17 ± 0.0 % ID
  % ID in Hippocampus: 0.003 ± 0.00 % ID
  % ID in Intestines: 14.72 ± 4.1 % ID
  % ID in Kidneys: 1.45 ± 0.1 % ID
  % ID in Liver: 41.44 ± 1.5 % ID
  % ID in Lungs: 0.32 ± 0.0 % ID
  % ID in Rest of cerebrum: 0.071 ± 0.01 % ID
  % ID in Spleen + Pancreas: 0.31 ± 0.0 % ID
  % ID in Stomach: 10.00 ± 2.5 % ID
  % ID in Striatum: 0.015 ± 0.00 % ID
  % ID in Urine: 1.87 ± 0.2 % ID
  % ID present in the liver and intestines in total: 56 % ID
  % ID present in the urinary system: ~3.3 % ID
  % ID/g in Blood: 0.08 ± 0.00 % ID/g
  % ID/g in Cerebellum: 0.04 ± 0.00 % ID/g
  % ID/g in Cerebrum + Cerebellum: 0.07 ± 0.00 % ID/g
  % ID/g in Cerebrum total: 0.07 ± 0.00 % ID/g
  % ID/g in Cortex: 0.06 ± 0.00 % ID/g
  % ID/g in Heart: 0.16 ± 0.00 % ID/g
  % ID/g in Hippocampus: 0.05 ± 0.01 % ID/g
  % ID/g in Kidneys: 0.46 ± 0.02 % ID/g
  % ID/g in Liver: 3.11 ± 0.06 % ID/g
  % ID/g in Lungs: 0.20 ± 0.02 % ID/g
  % ID/g in Rest of cerebrum: 0.07 ± 0.00 % ID/g
  % ID/g in Spleen + Pancreas: 0.19 ± 0.01 % ID/g
  % ID/g × kg in Blood: 0.03 ± 0.00 % ID/g × kg
  % ID/g × kg in Cerebellum: 0.015 ± 0.00 % ID/g × kg
  % ID/g × kg in Cerebrum + Cerebellum: 0.02 ± 0.00 % ID/g × kg
  % ID/g × kg in Cerebrum total: 0.024 ± 0.00 % ID/g × kg
  % ID/g × kg in Cortex: 0.019 ± 0.00 % ID/g × kg
  % ID/g × kg in Heart: 0.05 ± 0.00 % ID/g × kg
  % ID/g × kg in Hippocampus: 0.016 ± 0.00 % ID/g × kg
  % ID/g × kg in Kidneys: 0.16 ± 0.01 % ID/g × kg
  % ID/g × kg in Liver: 1.04 ± 0.02 % ID/g × kg
  % ID/g × kg in Lungs: 0.07 ± 0.01 % ID/g × kg
  % ID/g × kg in Rest of cerebrum: 0.022 ± 0.00 % ID/g × kg
  % ID/g × kg in Spleen + Pancreas: 0.06 ± 0.01 % ID/g × kg
  % ID/g × kg in Striatum: 0.083 ± 0.01 % ID/g × kg
[1]
  striatum/blood ratio: 3.0
  striatum/cerebellum ratio: 5.6
  striatum/cortex ratio: 4.4
  striatum/hippocampus ratio: 5.2
Blood
  Clearance, 2 min/30 min ratio for % ID/g values: 1.60
  Clearance, 2 min/60 min ratio for % ID/g values: 2.28
Cerebellum
  Clearance, 2 min/30 min ratio for % ID/g values: 4.37
  Clearance, 2 min/60 min ratio for % ID/g values: 8.8 and 8.81
Cerebrum total
  Clearance, 2 min/30 min ratio for % ID/g values: 2.54
  Clearance, 2 min/60 min ratio for % ID/g values: 4.34
Cortex
  Clearance, 2 min/30 min ratio for % ID/g values: 3.81
  Clearance, 2 min/60 min ratio for % ID/g values: 7.19
Hippocampus
  Clearance, 2 min/30 min ratio for % ID/g values: 2.54
  Clearance, 2 min/60 min ratio for % ID/g values: 4.33
Rest of cerebrum
  Clearance, 2 min/30 min ratio for % ID/g values: 2.54
  Clearance, 2 min/60 min ratio for % ID/g values: 4.53
Striatum
  Clearance, 2 min/30 min ratio for % ID/g values: 0.97
  Clearance, 2 min/60 min ratio for % ID/g values: 1.6 and 1.62
At all time points examined
  % ID present in the carcass: ~26 % ID
